Measured values reported in the supplement of paper PMC4862054.

Key:
Details in all cases: incubation time: 72 h
[1] = tested on: BT-474; experiment: normalised response (% of control), CellTox Green; higher = less cell death (100 = DMSO, 0 = benzethonium chloride kill control)
Outline: (§1)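 After 72 h with compound in 384-well plates, breast cancer cell lines seeded as 20 µl suspension were read for CellTox Green fluorescence at 485/520 nm. CellTiter-Glo luminescence was then read after 10 min at room temperature. Compound was present at 5 concentrations in 10-fold steps over a 10,000-fold range set per compound, and plates were normalised to 0.1 % DMSO (100) and a positive kill control (0). Values are normalised signals, each at a single concentration.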

[2] = tested on: BT-549; experiment: as above
Outline: as §1

[3] = tested on: CAL-120; experiment: as above
Outline: as §1

[4] = tested on: CAL-148; experiment: as above
Outline: as §1

[5] = tested on: CAL-51; experiment: as above
Outline: as §1

[6] = tested on: CAL-85-1; experiment: as above
Outline: as §1

[7] = tested on: DU-4475; experiment: as above
Outline: as §1

[8] = tested on: HCC1143; experiment: as above
Outline: as §1

[9] = tested on: HCC1599; experiment: as above
Outline: as §1

[10] = tested on: HCC1937; experiment: as above
Outline: as §1

[11] = tested on: HDQ-P1; experiment: as above
Outline: as §1

[12] = tested on: MCF-10A; experiment: as above
Outline: as §1

[13] = tested on: MDA-MB-231; experiment: as above
Outline: as §1

[14] = tested on: MDA-MB-436; experiment: as above
Outline: as §1

[15] = tested on: MDA-MB-453; experiment: as above
Outline: as §1

[16] = tested on: MDA-MB-468; experiment: as above
Outline: as §1

[17] = tested on: MFM-223; experiment: as above
Outline: as §1

[18] = tested on: BT-474; experiment: normalised response (% of control), CellTiter-Glo; higher = more viable cells (100 = DMSO, 0 = benzethonium chloride kill control)
Outline: as §1

[19] = tested on: BT-549; experiment: as above
Outline: as §1

[20] = tested on: CAL-120; experiment: as above
Outline: as §1

[21] = tested on: CAL-148; experiment: as above
Outline: as §1

[22] = tested on: CAL-51; experiment: as above
Outline: as §1

[23] = tested on: CAL-85-1; experiment: as above
Outline: as §1

[24] = tested on: DU-4475; experiment: as above
Outline: as §1

[25] = tested on: HCC1143; experiment: as above
Outline: as §1

[26] = tested on: HCC1599; experiment: as above
Outline: as §1

[27] = tested on: HCC1937; experiment: as above
Outline: as §1

[28] = tested on: HDQ-P1; experiment: as above
Outline: as §1

[29] = tested on: Hs578T; experiment: as above
Outline: as §1

[30] = tested on: MCF-10A; experiment: as above
Outline: as §1

[31] = tested on: MDA-MB-231; experiment: as above
Outline: as §1

[32] = tested on: MDA-MB-436; experiment: as above
Outline: as §1

[33] = tested on: MDA-MB-453; experiment: as above
Outline: as §1

[34] = tested on: MDA-MB-468; experiment: as above
Outline: as §1

[35] = tested on: MFM-223; experiment: as above
Outline: as §1

[36] = tested on: SK-BR-3; experiment: as above
Outline: as §1

| Structure (SMILES) | normalised response [1] [%] | normalised response [2] [%] | normalised response [3] [%] | normalised response [4] [%] | normalised response [5] [%] | normalised response [6] [%] | normalised response [7] [%] | normalised response [8] [%] | normalised response [9] [%] | normalised response [10] [%] | normalised response [11] [%] | normalised response [12] [%] | normalised response [13] [%] | normalised response [14] [%] | normalised response [15] [%] | normalised response [16] [%] | normalised response [17] [%] | normalised response [18] [%] | normalised response [19] [%] | normalised response [20] [%] | normalised response [21] [%] | normalised response [22] [%] | normalised response [23] [%] | normalised response [24] [%] | normalised response [25] [%] | normalised response [26] [%] | normalised response [27] [%] | normalised response [28] [%] | normalised response [29] [%] | normalised response [30] [%] | normalised response [31] [%] | normalised response [32] [%] | normalised response [33] [%] | normalised response [34] [%] | normalised response [35] [%] | normalised response [36] [%] |
| --- | --- | --- | --- | --- | --- | --- | --- | --- | --- | --- | --- | --- | --- | --- | --- | --- | --- | --- | --- | --- | --- | --- | --- | --- | --- | --- | --- | --- | --- | --- | --- | --- | --- | --- | --- | --- |
| Cc1c(C(=O)Nc2ccc(N3C[C@@H](C)O[C@@H](C)C3)nc2)cccc1-c1ccc(OC(F)(F)F)cc1 [Erismodegib] (1000 nM) | 103 | 136 | 99.7 | 110 | 97.5 | 104 | 97.6 | 110 | 103 | 74.5 | 99.7 | 107 | 72.4 | 94.7 | 101 | 111 | 101 | 81.7 | 90.5 | 96.5 | 98.5 | 66.1 | 93 | 98.9 | 89.8 | 101 | 97.9 | 91.7 | 101 | 85.6 | 94.2 | 84.6 | 79.2 | 93.7 | 84.9 | 81.7 |
| CO[C@H](C(=O)[C@@H](O)[C@@H](C)O)[C@@H]1Cc2cc3cc(O[C@H]4C[C@@H](O[C@@H]5C[C@@H](O)[C@H](O)[C@@H](C)O5)[C@H](O)[C@@H](C)O4)c(C)c(O)c3c(O)c2C(=O)[C@H]1O[C@H]1C[C@@H](O[C@@H]2C[C@@H](O)[C@@H](O[C@@H]3C[C@](C)(O)[C@H](O)[C@@H](C)O3)[C@@H](C)O2)[C@H](O)[C@@H](C)O1 [Plicamycin] (10 nM) | – | – | – | – | – | – | – | – | – | – | – | – | – | – | – | – | – | 108 | 104 | 101 | 116 | 74.9 | 103 | 107 | 103 | 117 | 97.7 | 96.4 | 105 | 114 | 103 | 101 | 118 | 109 | 108 | 111 |
| C[C@]12C=CC(=O)C=C1CC[C@@H]1[C@@H]2C(=O)C[C@@]2(C)[C@H]1CC[C@]2(O)C(=O)CO [Prednisone] (10 nM) | – | – | – | – | – | – | – | – | – | – | – | – | – | – | – | – | – | 103 | 98 | 104 | 108 | 118 | 99.9 | 107 | 101 | 96.9 | 95.8 | 96.3 | 96.7 | 109 | 98.7 | 101 | 118 | 98.4 | 104 | 123 |
| CO[C@H]1C[C@@H]2CC[C@@H](C)[C@@](O)(O2)C(=O)C(=O)N2CCCC[C@H]2C(=O)O[C@H]([C@H](C)C[C@@H]2CC[C@@H](O)[C@H](OC)C2)CC(=O)[C@H](C)/C=C(\C)[C@@H](O)[C@@H](OC)C(=O)[C@H](C)C[C@H](C)/C=C/C=C/C=C/1C [Sirolimus] (0.01 nM) | – | – | – | – | – | – | – | – | – | – | – | – | – | – | – | – | – | 99.1 | 97.6 | 95.9 | 91.1 | 87.1 | 89.9 | 104 | 92.4 | 98.3 | 105 | 100 | 94.7 | 106 | 93.6 | 103 | 103 | 94.1 | 95.5 | 106 |
| CN1CCN(c2nc(C3=C(c4c[nH]c5ccccc45)C(=O)NC3=O)c3ccccc3n2)CC1 [Sotrastaurin] (10 nM) | – | – | – | – | – | – | – | – | – | – | – | – | – | – | – | – | – | 93.5 | 94.6 | 91.3 | 93.1 | 123 | 95.8 | 96.8 | 96.1 | 105 | 96.6 | 100 | 101 | 99.6 | 105 | 94.2 | 96.1 | 93.6 | 93.6 | 124 |
| CC/C(=C(\c1ccccc1)c1ccc(OCCN(C)C)cc1)c1ccccc1 [Tamoxifen] (10 nM) | – | – | – | – | – | – | – | – | – | – | – | – | – | – | – | – | – | 103 | 91.8 | 100 | 108 | 83.8 | 98.8 | 104 | 114 | 103 | 103 | 104 | 97.3 | 112 | 100 | 100 | 98.7 | 99.2 | 108 | 100 |
| CN1CCc2c(c3ccccc3n2Cc2ccc(C(=O)NO)cc2)C1 [Tubastatin A] (1 nM) | – | – | – | – | – | – | – | – | – | – | – | – | – | – | – | – | – | 97.3 | 104 | 92.7 | 94.9 | 88.4 | 103 | 102 | 98 | 101 | 97.6 | 96.4 | 97.6 | 99.8 | 96.8 | 87.7 | 103 | 99.5 | 101 | 99.3 |
| CN1CCc2c(c3ccccc3n2Cc2ccc(C(=O)NO)cc2)C1 [Tubastatin A] (10 nM) | – | – | – | – | – | – | – | – | – | – | – | – | – | – | – | – | – | 92.7 | 96.3 | 96.1 | 107 | 67.6 | 107 | 100 | 95.2 | 92.8 | 99.6 | 99.4 | 102 | 101 | 92.4 | 95.2 | 94.1 | 102 | 102 | 93.8 |
| CCc1c(C(=O)C(N)=O)c2c(OCC(=O)O)cccc2n1Cc1ccccc1 [Varespladib] (1 nM) | – | – | – | – | – | – | – | – | – | – | – | – | – | – | – | – | – | 97.6 | 98.7 | 98.1 | 109 | 100 | 97.9 | 93.6 | 99 | 102 | 96.6 | 100 | 103 | 110 | 111 | 102 | 106 | 89.2 | 97.7 | 101 |
| CCc1c(C(=O)C(N)=O)c2c(OCC(=O)O)cccc2n1Cc1ccccc1 [Varespladib] (10 nM) | – | – | – | – | – | – | – | – | – | – | – | – | – | – | – | – | – | 97.2 | 92.9 | 96 | 104 | 107 | 97.3 | 102 | 102 | 95.9 | 97.7 | 97.1 | 104 | 105 | 99.7 | 96 | 95.4 | 98.9 | 102 | 99.1 |
| CCc1c(C(=O)C(N)=O)c2c(OCC(=O)O)cccc2n1Cc1ccccc1 [Varespladib] (1000 nM) | 99.9 | 102 | 106 | 100 | 110 | 114 | 102 | 108 | 99.3 | 105 | 114 | 97.7 | 103 | 103 | 109 | 105 | 97 | 92.6 | 94.2 | 98.2 | 104 | 106 | 97.6 | 101 | 106 | 96.4 | 100 | 100 | 102 | 104 | 103 | 94 | 99.8 | 100 | 95.8 | 100 |
| CC[C@@H]1C(=O)N(C)c2cnc(Nc3ccc(C(=O)N[C@H]4CC[C@H](N5CCN(CC6CC6)CC5)CC4)cc3OC)nc2N1C(C)C [Volasertib] (1 nM) | – | – | – | – | – | – | – | – | – | – | – | – | – | – | – | – | – | 89.7 | 102 | 100 | 105 | 111 | 102 | 100 | 99.9 | 113 | 99.2 | 92.5 | 103 | 102 | 97.6 | 100 | 77.1 | 90.1 | 98.3 | 98.5 |
